According to patent US20240270821A1, “GIP/GLP1/GCG TRI-RECEPTOR AGONISTS AND USES THEREOF” (priority 2023, published 2024):
Starred links: 1 amine or outer side, 2 acyl side, 3 side chain; linkers in the order of their positions; H or OH if unused. Non-standard residues stand in square brackets, D forms with d. Groups on a side chain read outwards from the residue. No end group written: not given here. *: point of attachment. C18 diacid = O=C(O)CCCCCCCCCCCCCCCCC(=O)*; γGlu = O=C(O)[C@H](CCC(=O)[*:2])N[*:1]; αMe4Pal = C[C@](N)(Cc1ccncc1)C(=O)O; 4Pal = N[C@@H](Cc1ccncc1)C(=O)O; αMeL = CC(C)C[C@](C)(N)C(=O)O; AEEA = NCCOCCOCC(=O)O; Aib = CC(C)(N)C(=O)O

What was measured:
Assay type in all cases: cell-based
hGIPR [1] = molecular target: T1, hGIPR (Homo sapiens, UniProt P48546); experiment: Functional cAMP activity in the presence of 1% HSA; conditions: read-out: cAMP Rel EC50, hGIPR
T1 sequence (P48546 22-466): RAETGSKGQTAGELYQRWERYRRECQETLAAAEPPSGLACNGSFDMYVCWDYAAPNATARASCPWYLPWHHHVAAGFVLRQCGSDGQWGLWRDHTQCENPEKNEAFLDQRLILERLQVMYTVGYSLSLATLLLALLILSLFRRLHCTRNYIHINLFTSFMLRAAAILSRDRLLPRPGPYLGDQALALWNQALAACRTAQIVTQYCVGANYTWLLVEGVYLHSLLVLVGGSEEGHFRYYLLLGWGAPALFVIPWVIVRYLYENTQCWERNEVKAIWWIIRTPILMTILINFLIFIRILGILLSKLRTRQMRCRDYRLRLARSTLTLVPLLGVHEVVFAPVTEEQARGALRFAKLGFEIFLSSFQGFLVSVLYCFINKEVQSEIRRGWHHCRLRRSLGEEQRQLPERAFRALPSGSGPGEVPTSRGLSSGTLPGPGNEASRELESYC

human GcgR = human GcgR (Homo sapiens, UniProt P47871); experiment: Functional cAMP activity in the presence of 1% HSA; conditions: read-out: cAMP Rel EC50, hGcgR
hGLP-1R [2] = molecular target: T2, hGLP-1R (Homo sapiens, UniProt P43220); experiment: Functional cAMP activity in the presence of 1% HSA; conditions: read-out: cAMP Rel EC50, hGLP-1R
hGLP-1R [3] = molecular target: T2, hGLP-1R; experiment: Functional cAMP activation in the presence of 0.1% casein (no HSA); conditions: in the presence of 0.1% casein (no HSA); geometric mean; read-out: Relative cAMP EC50, hGLP-1R;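 on Relative cAMP EC50, hGIPR: intracellular cAMP rise after 30 min at 37 °C read by HTRF against a standard curve, scaled between buffer alone (0%) and top control ligand concentration (100%), four-parameter fit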;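 on Relative cAMP EC50, hGLP-1R: intracellular cAMP rise after 30 min at 37 °C read by HTRF, normalized between buffer only (0%) and maximal control ligand (100%), four-parameter variable-slope fit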;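 on Relative cAMP EC50, hGcgR: intracellular cAMP rise after 30 min at 37 °C, read by HTRF against a cAMP standard curve, scaled from buffer only (0%) to maximal control ligand response (100%)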
hGcgR = hGcgR (Homo sapiens, UniProt P47871); experiment: as above; conditions: in the presence of 0.1% casein (no HSA); geometric mean; read-out: Relative cAMP EC50, hGcgR;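 further: intracellular cAMP rise after 30 min at 37 °C, read by HTRF against a cAMP standard curve, scaled from buffer only (0%) to maximal control ligand response (100%)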
hGIPR [4] = molecular target: T1, hGIPR; experiment: as above; conditions: in the presence of 0.1% casein (no HSA); geometric mean; read-out: Relative cAMP EC50, hGIPR

T2 sequence (P43220 24-463): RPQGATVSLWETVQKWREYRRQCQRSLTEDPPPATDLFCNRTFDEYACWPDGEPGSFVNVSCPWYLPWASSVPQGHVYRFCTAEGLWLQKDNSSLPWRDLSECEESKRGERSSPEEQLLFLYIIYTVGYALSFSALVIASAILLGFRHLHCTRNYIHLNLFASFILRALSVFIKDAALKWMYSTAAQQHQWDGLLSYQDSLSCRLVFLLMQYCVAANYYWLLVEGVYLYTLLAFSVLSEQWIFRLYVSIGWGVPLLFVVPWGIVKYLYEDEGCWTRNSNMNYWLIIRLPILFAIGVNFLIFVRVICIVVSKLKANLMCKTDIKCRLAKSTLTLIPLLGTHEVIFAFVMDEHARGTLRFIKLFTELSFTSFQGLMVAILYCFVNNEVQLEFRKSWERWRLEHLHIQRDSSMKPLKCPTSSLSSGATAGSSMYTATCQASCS
human GcgR, sequence (P47871 26-477): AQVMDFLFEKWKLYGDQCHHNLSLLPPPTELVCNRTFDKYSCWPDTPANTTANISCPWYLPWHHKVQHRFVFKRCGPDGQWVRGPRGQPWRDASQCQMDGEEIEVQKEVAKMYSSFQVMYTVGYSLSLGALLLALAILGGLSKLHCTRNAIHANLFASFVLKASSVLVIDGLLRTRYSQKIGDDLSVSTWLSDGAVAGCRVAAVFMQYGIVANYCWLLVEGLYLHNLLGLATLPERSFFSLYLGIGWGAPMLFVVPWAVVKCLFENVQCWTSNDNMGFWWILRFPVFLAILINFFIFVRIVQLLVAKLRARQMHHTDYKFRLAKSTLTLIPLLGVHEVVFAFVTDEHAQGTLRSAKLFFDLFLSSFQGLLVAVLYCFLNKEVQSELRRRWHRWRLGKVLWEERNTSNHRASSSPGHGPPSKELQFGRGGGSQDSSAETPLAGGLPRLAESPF
hGcgR, sequence (P47871 26-477): as above

| Substance | EC50 (hGIPR [1]) | EC50 (human GcgR) | EC50 (hGLP-1R [2]) | EC50 (hGLP-1R [3]) | EC50 (hGcgR) | EC50 (hGIPR [4]) |
| --- | --- | --- | --- | --- | --- | --- |
| H-Y[Aib]QGTFTSD[4Pal]SQ[αMeL]LDKK([AEEA-γGlu-C18 diacid])AQ[αMe4Pal]AFIEYLIE[Aib]GPSSGAPPPSGE-NH2 [Example 881] | 30.1 nM | 507 nM | 321 nM | 2.87 nM | 4.09 nM | 0.211 nM |
| H-Y[Aib]QGTFTSD[4Pal]SQ[αMeL]LDKK([AEEA-γGlu-C18 diacid])AQ[αMe4Pal]AFIEYLIE[Aib]GPSSGAPPPSGSE-NH2 [Example 886] | 26.5 nM | 540 nM | 271 nM | 2.7 nM | 4.13 nM | 0.149 nM |
| H-Y[Aib]QGTFTSD[4Pal]SQ[αMeL]LDKK([AEEA-γGlu-C18 diacid])AQ[αMe4Pal]AFIEYLIE[Aib]GPSSGAPPPSGSEE-NH2 [Example 897] | 25.9 nM | 658 nM | 557 nM | 3.29 nM | 3.62 nM | 0.157 nM |
| H-Y[Aib]QGTFTSD[4Pal]SQ[αMeL]LDKK([AEEA-γGlu-C18 diacid])AQ[αMe4Pal]AFIEYLIE[Aib]GPSSGAPPPSGSEEE-NH2 [Example 898] | 25.5 nM | 770 nM | 584 nM | 4.62 nM | 3.39 nM | 0.287 nM |
| H-Y[Aib]QGTFTSD[4Pal]SQ[αMeL]LDKK([AEEA-γGlu-C18 diacid])AQ[αMe4Pal]AFIEYLIE[Aib]GPSSGAPPPSGSGE [Example 889] | 21.6 nM | 688 nM | 371 nM | 5.06 nM | 4.09 nM | 0.106 nM |
| H-Y[Aib]QGTFTSD[4Pal]SQ[αMeL]LDKK([AEEA-γGlu-C18 diacid])AQ[αMe4Pal]AFIEYLIE[Aib]GPSSGAPPPSGSGE-NH2 [Example 888] | 30.8 nM | 567 nM | 238 nM | 5.02 nM | 30.1 nM | 0.168 nM |
| H-Y[Aib]QGTFTSD[4Pal]SQ[αMeL]LDKK([AEEA-γGlu-C18 diacid])AQ[αMe4Pal]AFIEYLIE[Aib]GPSSGAPPPSGT-NH2 [Example 834] | 15.7 nM | 533 nM | 208 nM | 2.64 nM | 3.36 nM | 0.094 nM |
| H-Y[Aib]QGTFTSD[4Pal]SQ[αMeL]LDKK([AEEA-γGlu-C18 diacid])AQ[αMe4Pal]AFIEYLIE[Aib]GPSSGAPPPSG[4Pal]-NH2 [Example 835] | 16.8 nM | 558 nM | 274 nM | 2.84 nM | 3.83 nM | 0.382 nM |
| H-Y[Aib]QGTFTSD[4Pal]SQ[αMeL]LDKK([AEEA-γGlu-C18 diacid])AQ[αMe4Pal]AFIEYLIE[Aib]GPSSGAPPPSSS-NH2 [Example 848] | 20.2 nM | 615 nM | 313 nM | 2.29 nM | 3.22 nM | 0.148 nM |
| H-Y[Aib]QGTFTSD[4Pal]SQ[αMeL]LDKK([AEEA-γGlu-C18 diacid])AQ[αMe4Pal]AFIEYLLAGGPSSGAPPPSGSEE-NH2 [Example 1037] | 13.7 nM | 291 nM | 625 nM | 5.95 nM | 3.31 nM | 0.221 nM |
| H-Y[Aib]QGTFTSD[4Pal]SQ[αMeL]LDKK([AEEA-γGlu-C18 diacid])AQ[αMe4Pal]AFIE[αMe4Pal]LIEGGPSSGAPPPSGS-NH2 [Example 948] | 22.9 nM | 537 nM | 304 nM | 2.67 nM | 2.89 nM | 0.17 nM |
| H-Y[Aib]QGTFTSD[4Pal]SQ[αMeL]LDKK([AEEA-γGlu-C18 diacid])AQ[αMe4Pal]AFIE[αMe4Pal]LIEGGPSSGAPPPSGSEE-NH2 [Example 954] | 35.3 nM | 450 nM | 357 nM | 4.79 nM | 3.66 nM | 0.268 nM |
| H-Y[Aib]QGTFTSD[4Pal]SQ[αMeL]LDKK([AEEA-γGlu-C18 diacid])AQ[αMe4Pal]AFIE[αMe4Pal]LIE[Aib]GPSSGAPPPSGTE-NH2 [Example 1116] | 10.8 nM | 364 nM | 198 nM | 4.63 nM | 8.2 nM | 0.134 nM |
| H-Y[Aib]QGTFTSD[4Pal]SQ[αMeL]LDKK([AEEA-γGlu-C18 diacid])AQ[αMe4Pal]AFIE[αMe4Pal]LIE[Aib]GPSSGAPPPSGTGE-NH2 [Example 1117] | 8.31 nM | 355 nM | 237 nM | 3.51 nM | 4.93 nM | 0.124 nM |
